Data as given in patent publication US6723745B2, “Amino alcohol derivatives” (Sankyo Company, Limited, priority 2000, dated 2004).

Columns and labels:
[1] = tested on: Host Versus Graft Reaction (HvGR) in the Rat; assay: Inhibitory activity against host versus graft reaction (HvGR) in the rat; type: in vivo; conditions: Lewis rats injected with WKAH/Hkm spleen cells into hind foot pads; oral, once a day for 4 successive days; popliteal lymph node weight
Text: Determination of the Inhibitory Activity Against Host Versus Graft Reaction (HvGR) in the Rat
(1) Two Strains of Rats (Lewis Rats (Male, 6 Weeks Old, Charles River Japan) and WKAH/Hkm (Male, 7 Weeks Old, SLC Japan)) Were Used. Five Rats (Host) Per Group Were Used.
The spleen cells were isolated from the spleen of the rats and 1×10^8 cells were suspended in the RPMI640 medium (LIFE TECHNOLOGIES, Rockville Md. USA). One hundred microliter (1×10^7 cells) of the spleen cell suspension whose cells were isolated from either WKAH/Hkm rats or Lewis rats were subcutaneously injected into the bilateral feet pad of the hindlimbs of the Lewis rat.
(3) Administration of the Compound
The compound was suspended in 0.5% tragacanth solution The suspended compound was orally administered to rats in the drug-treated group (Lewis rats injected with spleen cells isolated from AH/Hkm rats, and treated with the compound) at a volume of 5 ml/kg. The treatment was started on the day of the spleen cell injection, once a day, for 4 successive days. Tragacanth solution (0.5%) was orally administered, instead of the suspension of the test compound, to the rats in the same strain group (Lewis rats injected with spleen cells which were isolated from the Lewis rats) and to the rats in the control group (Lewis rats injected spleen cells isolated from WKAH/Hkm rats, and not treated with the test compound).
(4) Determination Procedures for Inhibitory Activity Against HvGR
The average weight of the popliteal lymph node of the same strain rats was subtracted from the weight of the popliteal lymph node of the individual rat (popliteal lymph gland weight due to HvGR). The inhibition rate of the popliteal lymph node weight due to HvGR of the individual rat treated with the test compound against the average weight of the control rats was calculated. The inhibitory activity of the test compound was expressed as an ID50 value (mg/kg) calculated from the dose-inhibition rate by the least square method.

[2] = tested on: Adjuvant Arthritis; assay: Inhibitory activity on induction of adjuvant arthritis; type: in vivo, rat; conditions: adjuvant (Mycobacterium butylricum) in right hind paw of female Lewis rats; oral, once daily for 21 days; swelling volume of right hind paw
Protocol: Determination of the Inhibitory Activity of the Compounds of the Present Invention on Induction of Adjuvant Arthritis
1. Preparation of Adjuvant
Heat-killed, Mycobacterium butylricum was suspended in mineral oil at a concentration of 2 mg/ml and sonicated with an ultrasonic apparatus.
2. Preparation of the Test Compound.
The test compound was suspended in 0.5% Tragacanth solution.
3. Induction of Adjuvant Arthritis
The adjuvant prepared as described in 1 was intradermally injected into the right hind paw of the female rats (usually Lewis rats were used) at a volume of 0.05 ml. Five rats per group were used. In one group of rats, adjuvant was not injected for the control group.
4. Administration of the Compound
The compound solution prepared as described in 2 was orally administered to rats from the injection day of the adjuvant, once daily for 21 days, at a dose of 5 ml/kg. Tragacanth solution (0.5%) was orally administered to one group of rats treated with adjuvant (the control group) and also to rats not treated with adjuvant.
5. Calculation Methods of Inhibitory Activity of the Compound
The volume of the right hind paw was determined with a plethymometer. The volume of the intact paw was subtracted from the individual volume, and the difference was used as the swelling volume. Then the inhibitory activity of the compound was calculated from the individual swelling volume of rats treated with the compound and that in the swelling volume of the control rats. The ID50 value of the compound was obtained from the doses treated and the average inhibitory rate of the group.

SMILES | HvGR ID50 values [1] [mg/kg] | ID50 value [2] [mg/kg]
C[C@](N)(CO)CCc1ccc(C#CCCCC2CCCCC2)s1 [Example 1, (2R)-Amino-2-methyl-4-[5-(5-Cyclohexylpent-1-ynyl)thiophen-2-yl]butan-1-ol] | 0.0843 | 0.0897
C[C@](N)(CO)CCc1ccc(CCCCCC2CCCCC2)s1 [Example 11, (2R)-Amino-2-methyl-4-[5-(5-Cyclohexylpent)thiophen-2-yl]butan-1-ol] | 0.0844 | –
Cc1ccc(OCC#Cc2ccc(CC[C@@](C)(N)CO)s2)cc1.O=C(O)/C=C\C(=O)O [Example 34, (2R)-Amino-2-methyl-4-{5-[3-(4-methylphenoxy)propynyl]thiophen-2-yl}butan-1-ol Maleate] | – | 0.0470
COc1ccc(OCC#Cc2ccc(CC[C@@](C)(N)CO)s2)cc1OC.O=C(O)/C=C\C(=O)O [Example 40, (2R)-Amino-2-methyl-4-{5-[3-(3,4-dimethoxphenoxy)propynyl]thiophen-2-yl}butan-1-ol Maleate] | 0.0683 | –
COc1cccc(OCC#Cc2ccc(CC[C@@](C)(N)CO)s2)c1.O=C(O)/C=C\C(=O)O [Example 43, (2R)-Amino-2-methyl-4-{5-[3-(3-methoxylphenoxy)propynyl]thiophen-2-yl}butan-1-ol Maleate] | 0.0730 | –
Cc1ccc(OCC#Cc2ccc(CC[C@@](C)(N)CO)s2)cc1C.O=C(O)/C=C\C(=O)O [Example 46, (2R)-Amino-2-methyl-4-{5-[3-(3,4-dimethylphenoxy)propynyl]thiophen-2-yl}butan-1-ol Maleate] | 0.0454 | –
CCCCCCCCc1ccc(CCC(N)(CO)CO)cc1.Cl [Reference Compound 1, reference compound] | 0.354 | 0.1666
